Test results published in paper PMC12175177 (Frontiers in Pharmacology, 2025).

Test system: SARS-CoV-2 A2.5 variant
Assay: Pre- and post-exposure assay, A2.5 variant in Vero E6 cells
Type: cell-based

Compound | antiviral effect, treatment 1 hour post-infection, A2.5 | effect on viral replication, treatment 1 hour pre-infection, A2.5
CCN(CC)CCCC(C)Nc1ccnc2cc(Cl)ccc12 (stereo not shown) [Chloroquine diphosphate (CQ), Chloroquine diphosphate] | dose-dependent antiviral effect | did not influence the viral replication
COc1cc(NC(C)CCCN)c2ncccc2c1 (stereo not shown) [Primaquine Phosphate (PQ), Primaquine Phosphate] | dose-dependent antiviral effect | did not influence the viral replication
